One block for each compound: values may come before it.
Legend:
[1] = Circular dichroism (CD) spectrum, molar ellipticity at about 270 nm as measure of base moiety orientation (syn/anti); assay type: physicochemical; conditions: for change of [θ]ext / CD peak from phosphate buffer to borate buffer (borax): phosphate vs borate buffer; for Δ[θ]ext: phosphate buffer minus borate buffer
Description: The molar ellipticity ([θ]max) at about 270 nm in the CD spectrum of a nucleoside reflects two factors, namely the orientation of the base moiety to the furanose moiety and the puckering of the furanose ring. It is known that the molar ellipticity at about 270 nm markedly decreases in the syn orientation as compared with the anti orientation. […]
[…] […] The rate of syn orientation induction in Urd in the presence of boric acid was smaller as compared with IPU but this can be explained by the presence of an equilibrium between the borate ester formation and the dissociation.
Specifically, CD spectra were measured with Urd, 5′-aminouridine (5′-NH2-Urd) and 5′-aminoisopropylideneuridine (5′-NH2-IPU) in phosphate buffer (pH 7.2) and with 5′-NH2-Urd in borate buffer (pH 7.2) for the investigation of uracil moiety orientations. […] This is presumably due to a syn orientation-inducing effect of hydrogen bond formation between the oxygen atom of the 2-position carbonyl group of the nucleoside base moiety and the 5′-position amino hydrogen atom. Under the measurement conditions in this case, the 5′-position amino group of 5′-NH2-Urd occurs in an ammonium ion state and presumably serves as a good hydrogen bond donor. […] This is probably due to two synergistic effects, namely the fixation of the sugar moiety to the 2′,3′-planar structure and the hydrogen bond formation between the 5′-position amino group and the 2-position carbonyl group of the base moiety.
Then, on the supposition that Urd in phosphate buffer ([θ]max value=9700) is in an ideal 100% anti orientation and 5′-NH2-IPU in phosphate buffer ([θ]max value=1200) in an ideal 100% syn orientation, the orientations of the base moiety (uracil) of uridine and uridine derivatives (5′-NH2-Urd, IPU, 5′-NH2-IPU) were evaluated under different conditions (in phosphate buffer, in borate buffer).

[2] = test system: (T)8; test: Melting point (Tm) of complex with oligonucleotide by UV absorbance change, control run; assay type: binding; conditions: phosphate pH 7.2
Method: (§1) Specifically, the PRNA2 (octamer) (17) was mixed with the oligonucleotide octamer shown in Table 3, the melting point (Tm) was determined by measuring the resulting change in absorbance on a UV spectrum, and the ability of the PRNA2 (octamer) (17) to hybridize with a nucleic acid (complex forming ability) was evaluated from that melting point. Further, for examining the influence of boric acids on the PRNA2 (octamer)-DNA hybrid formation and on the stability thereof, melting point measurements were carried out using the PRNA2 (octamer) (17) and d(A)8 as the binding target oligonucleotide to the PRNA2, namely a complementary compound to (T)8, with and without addition of borax (20 mM), and the melting points were compared. A control run was carried out in the same manner using (T)8 as the binding target oligonucleotide in lieu of d(A) 8.

[3] = test system: d(A)8; test: Melting point (Tm) of complex with oligonucleotide by UV absorbance change; assay type: binding; conditions: phosphate pH 7.2
Method: as §1

[4] = test system: d(A)12; test: Melting temperature (Tm) of dodecameric chimera nucleic acid with complementary DNA; assay type: binding
Method: Using the above dodecameric chimera nucleic acid and a DNA having a complementary base sequence, the melting temperature Tm was measured in phosphate buffer allowing predominance of the anti orientation in the PRNA moiety.

Compound: CC(C)(C)OC(=O)N[C@@H](CCC(=O)NC[C@H]1O[C@@H](n2ccc(=O)[nH]c2=O)[C@H](O)[C@@H]1O)C(=O)O [Boc-isoGln(5′U)-OH, N^α-t-butoxycarbonyl-N^5-(5′-deoxy-5′-uridyl)-L-isoglutamine]
proportion of syn orientation of the base moiety ([1]; borate buffer (pH 7.2)): 56 % syn

Compound: HCl.(isoGln(5′U))8-Lys-OH [PRNA2 (17)]
Tm ([2]; binding target (T)8, 20 mM borax): <0 °C
Tm ([2]; binding target (T)8, no additive): <0 °C
Tm ([3]; binding target d(A)8, 20 mM borax): <0 °C
Tm ([3]; binding target d(A)8, 20 mM borax, listed as PRNA2 (octamer)): below 0 °C
Tm ([3]; binding target d(A)8, no additive): 52.8 °C

Compound: NH2-UUUUUUUUTTTT-3′: chimeric molecule dodecamer, PRNA(Urd) octamer amide-bonded to thymidine tetramer
change of [θ]ext / CD peak from phosphate buffer to borate buffer (borax) [1]: [θ]ext decreased
Tm ([4]; binding target d(A)12, 20 mM borax): <0 °C
Tm ([4]; binding target d(A)12, 20 mM borax, listed as (U)8DNA(T)4): < 0 °C
Tm ([4]; binding target d(A)12, no additive, phosphate buffer pH 7.2): 42.5 °C
Tm gain of the complex over the DNA-DNA complex ([4]; no additive): 19.3 °C

Other lines, results leading:

change of [θ]ext / CD peak from phosphate buffer to borate buffer (borax) [1]: [θ]ext decreases
Compound: Boc-isoGln(5′U)-isoGln(5′U)-isoGln(5′U)-OH [U-U-U]

Molar ellipticity ([θ]ext) at about 270 nm ([1]; phosphate buffer (pH 7.2)): 6600 deg·cm2/dmol
Δ[θ]ext [1]: 3300
Compound: Boc-isoGln(5′U)-isoGln(5′I)-OH [U-I]

Molar ellipticity ([θ]ext) at about 270 nm ([1]; borate buffer (pH 7.2)): 950 deg·cm2/dmol
Molar ellipticity ([θ]ext) at about 270 nm ([1]; phosphate buffer (pH 7.2)): 600 deg·cm2/dmol
Δ[θ]ext [1]: −350
Compound: Cc1cn([C@H]2C[C@H](O)[C@@H](CN)O2)c(=O)[nH]c1=O [5′-NH2-Thd [A], 5′-amino-5′-deoxythymidine, reference compound]

Molar ellipticity ([θ]ext) at about 270 nm ([1]; borate buffer (pH 7.2)): 1250 deg·cm2/dmol
Molar ellipticity ([θ]ext) at about 270 nm ([1]; phosphate buffer (pH 7.2)): 12300 deg·cm2/dmol
Δ[θ]ext [1]: 11050
Compound: Boc-isoGln(5′U)-isoGln(5′U)-OH [U-U]

[θ]max ([1]; borate buffer (pH 7.2)): 7400 deg cm^2dmol^−1
proportion of syn orientation of the base moiety ([1]; borate buffer (pH 7.2)): 27 % syn
[θ]max ([1]; phosphate buffer (pH 7.2)): 9700 deg cm^2dmol^−1
proportion of anti orientation of the base moiety ([1]; phosphate buffer (pH 7.2)): 100 % anti
Compound: O=c1ccn([C@@H]2O[C@H](CO)[C@@H](O)[C@H]2O)c(=O)[nH]1 [Urd, uridine, reference compound]

From patent publication US7442788B2, “Antisense molecules and method of controlling expression of gene function by using the same” (Japan Science and Technology Corporation, priority 2001, dated 2008)
